This is an account of results in patent US20110189241A1, “Process For Controlling The Particle Size of A [3-(Trifluoromethyl)Phenyl]-1-Aminopropane Derivative” (Medichem, S.A., priority 2008, published 2011).

This data set in a line: Particle size distribution (Malvern Mastersizer S, laser diffraction, by volume). As to conditions: for particle size D[v, 0.5]: crystals as isolated after crystallization from isobutyl acetate and drying, mean of nine readings, hydrochloride. It is filed as physicochemical. On the procedure:
The particle size for cinacalcet hydrochloride was measured using a Malvern Mastersizer S particle size analyzer with an MS1 Small Volume Sample Dispersion Unit stirred cell. A 300RF mm lens and a beam length of 2.4 mm were used. Samples for analysis were prepared by dispersing a weighed amount of cinacalcet hydrochloride (approximately 60 mg) in 20 mL of sample dispersant, previously prepared by dilution of 1.5 g of Soybean Lecithin to 200 mL with Isopar G. The suspension was delivered drop-wise to the background-corrected measuring cell filled with dispersant (Isopar G) until the obscuration reached the desired level. Nine repeated readings of the volume distributions were taken. For characterization, the values of D50 and D90 (by volume) were selected and reported as the mean of the nine values measured.

Take `C[C@@H](NCCCc1cccc(C(F)(F)F)c1)c1cccc2ccccc12.Cl` [Example 6, cinacalcet hydrochloride]: the “particle size D[v, 0.5]” value is recorded as 65.0 μm.

`C[C@@H](NCCCc1cccc(C(F)(F)F)c1)c1cccc2ccccc12.Cl` [Example 4, cinacalcet hydrochloride] yielded a particle size D[v, 0.9] (crystals as isolated after crystallization (Example 4)) of 404 µm.

Regarding `C[C@@H](NCCCc1cccc(C(F)(F)F)c1)c1cccc2ccccc12.Cl` [Example 9, cinacalcet hydrochloride], the “particle size D[v, 0.5]” value came out at 74.0 μm. Further, the particle size D[v, 0.9] (crystals as isolated after crystallization (Example 9)) was found to be 518 µm.
